For 17 molecules, IC50, selectivity ratio and EC50 results are on record in ChEMBL document CHEMBL5032529, “Synthesis and evaluation of tetrahydroisoquinoline derivatives against Trypanosoma brucei rhodesiense” (Eur J Med Chem, 2021).

In data set [1] the test system is Trypanosoma brucei rhodesiense. Put plainly: Antitrypanosomal activity against Trypanosoma brucei rhodesiense STIB900 assessed as parasite growth inhibition. In kind it is functional, organism-based.
Data set [2] can be described thus: Selectivity index, ratio of IC50 for cytotoxicity against African green monkey Vero cells to IC50 for antitrypanosomal activity against Trypanosoma brucei rhodesiense STI B900. In kind it is toxicity, cell-based. The conditions noted are these: read-out: Ratio IC50.
Data set [3] concerns Trypanosoma brucei rhodesiense. The experiment in a line: Antitrypanosomal activity against Trypanosoma brucei rhodesiense STIB900 assessed as parasite growth inhibition measured after 72 hrs by alamar blue dye based spectrofluorimetric analysis. The data set is classed as functional, organism-based. To be noted: STIB900, 72 h.
The next data set relates to Vero. The experiment in a line: Cytotoxicity against African green monkey Vero cells assessed as reduction in cell viability measured after 72 hrs by SRB assay. In kind it is cell-based. The conditions noted are these: Chlorocebus sabaeus. For orientation: The SRB assay estimates cell density from bound dye.
The test system of the next data set is Trypanosoma brucei. The experiment in a line: Antitrypanosomal activity against bloodstream form of Trypanosoma brucei assessed as parasite growth inhibition incubated for 3 days by resazurin staining based assay. To be noted: 72 h. In kind it is functional, organism-based. Background: The colour change of resazurin is a common sign of viable cells or microbes.

Data set [4] in a line: Inhibition of Trypanosoma Trypanothione reductase in presence of NADPH by DTNB based colorimetric assay.

pEC50, pIC50: −log10 of the molar value.

Turning to `C=C1C[C@H]2OC(=O)C(=C)[C@@H]2[C@H](OC(=O)/C(C)=C/C)C[C@@]2(C)OC1=CC2=O`, in data set [1], the pIC50 was 7.82.

As for `OC1CCCc2ccc(OCc3ccccc3)cc21` (stereo not drawn), the selectivity ratio in data set [2] is 0.6. Besides, the pIC50 in data set [3] is 4.18; in the data set on Vero, 4.41.

As for `CN1Cc2c(OCc3ccc(-c4ccccc4)cc3)cccc2[C@@H](O)C1`, the selectivity ratio in data set [2] was above 16. Moreover, the pIC50 is 5.51 in data set [3] and below 4.30 in the data set on Vero.

Regarding `OC1CNCc2c(OCc3ccc(-c4ccccc4)cc3)cccc21` (stereo not drawn), in data set [2], the selectivity ratio came out at 8. Moreover, the pIC50 in data set [3] is 5.57; with Vero, 4.67.

Take `OC1CNCc2c(OCc3cccc(Br)c3)cccc21` (stereo not drawn): in data set [2], the selectivity ratio was determined as 28.3. The pIC50 in data set [3] is 5.59; in the data set with Vero, 4.13.

With `CN1Cc2ccc(OCc3ccc(-c4ccccc4)cc3)cc2[C@H](OC(=O)c2ccccc2)C1`, the selectivity ratio in data set [2] was determined as 0.8. Also, the negative logarithm of the IC50 (pIC50) is 4.79 in data set [3] and 4.89 in the data set with Vero.

For the molecule `Clc1ccc2c(c1)N(CCCN1CCN(CCCc3ccccc3)CC1)c1ccccc1S2`, in the data set with Trypanosoma brucei, the pEC50 was 6.11. Moreover, the pIC50 in data set [4] was 6.12.

In the case of `OC1CNCc2ccc(OCc3cccc(Br)c3)cc21` (stereo not drawn), in data set [2], the selectivity ratio was found to be 16.3. In addition, the results for the negative-log IC50 (pIC50) (in data set [3]; with Vero) were 5.48 and 4.27, respectively.

With `OC1CNCc2c(OCc3ccc(Br)cc3)cccc21` (stereo not drawn), in data set [2], the selectivity ratio was above 19.7. Moreover, the figures for the pIC50 (in data set [3]; in the data set with Vero) were 5.60 and below 4.30, respectively.

In the case of `Cc1ccccc1COc1cccc2c1CNCC2O` (stereo not drawn), the selectivity ratio in data set [2] is above 6.1. The figures for the pIC50 (in data set [3]; in the data set on Vero) were 4.78 and below 4.00, respectively.

Regarding `OC1CNCc2c(OCc3ccccc3)cccc21` (stereo not drawn), the selectivity ratio in data set [2] is above 1.9. In addition, the pIC50 in data set [3] is 4.58; with Vero it was below 4.30.

On to `CN1Cc2c(OCc3ccccc3)cccc2[C@@H](O)C1`, for which, in data set [2], the selectivity ratio was above 1.4. The pIC50 in data set [3] was 4.16; with Vero it was below 4.00.

Take `CN1Cc2ccc(OCc3ccc(-c4ccccc4)cc3)cc2[C@@H](OC(=O)c2ccccc2)C1`: the selectivity ratio in data set [2] was found to be 0.6. Moreover, the pIC50 in data set [3] was 4.79; in the data set on Vero, 4.98.

For the molecule `OC1CNCc2ccc(OCCC3CCCCC3)cc21` (stereo not drawn), in data set [2], the selectivity ratio was above 20. Further, the pIC50 in data set [3] is 5.60; with Vero it was below 4.30.

`Cc1ccccc1COc1ccc2c(c1)C(O)CNC2` (stereo not drawn): the selectivity ratio in data set [2] is above 7.7. The pIC50 is 5.49 in data set [3] and below 4.60 in the data set on Vero.

Regarding `CN1Cc2c(OCCC3CCCCC3)cccc2[C@@H](O)C1`, the selectivity ratio in data set [2] was 4.8. In addition, the results for the pIC50 (in data set [3]; in the data set with Vero) were 4.89 and 4.20, respectively.

In the case of `OC1CNCc2c(OCCC3CCCCC3)cccc21` (stereo not drawn), the selectivity ratio in data set [2] worked out at 12.6. In addition, the pIC50 was 5.70 in data set [3] and 4.60 in the data set on Vero.

The pIC50 is the IC50 on a negative log10 scale, so that one unit is a factor of ten. Broadly, the pEC50 is −log10 of the EC50, conventionally taken in molar units.
